Several values for one entry are separate records, joined by “and”; a condition that tells them apart may be missing. Equal values may be shown once.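 A five-concentration, 48-hour dose response in 96-well plates underlies each endpoint, interpolated linearly between surrounding concentrations. GI50 marks 50% less growth. TGI marks complete inhibition of growth.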
Experiments:
Assay in all cases: NCI tumour cell line growth inhibition, 48 h
[1] = tested on: MDA-MB-231 breast
[2] = tested on: SNB-19 CNS
[3] = tested on: A549 NSCLC
[4] = tested on: BT-549 breast
[5] = tested on: SF-295 CNS
[6] = tested on: T-47D breast
[7] = tested on: NCI-H23 lung
[8] = tested on: ACHN renal
[9] = tested on: OVCAR-4 ovarian
[10] = tested on: SNB-75 CNS

Row | Structure (SMILES) | TGI [1] [µM] | TGI [2] [µM] | TGI [3] [µM] | TGI [4] [µM] | TGI [5] | TGI [6] [µM] | TGI [7] [µM] | TGI [8] [µM] | TGI [9] [µM] | TGI [10] | GI50 [1] [µM] | GI50 [2] [µM] | GI50 [3] [µM] | GI50 [4] [µM] | GI50 [5] [µM] | GI50 [6] [µM] | GI50 [7] [µM] | GI50 [8] [µM] | GI50 [9] [µM] | GI50 [10] [µM]
1 | O=C(O)CCC1COc2ccccc2O1 (configuration not stated) | > 10 | > 10 | > 10 | > 10 | > 10 µM | > 10 | > 10 | > 10 | > 10 | > 10 µM |  |  |  |  |  |  |  |  |  | 
2 | Nc1nc2c(c3ncccc13)C(c1cccc(Cl)c1)Cc1ncccc1-2 (configuration not stated) | 23.7 | 17.7 | > 100 | 13.3 | 11 µM | 38.5 | 59.4 | 67.1 | 40.5 | 8.17 µM | 4.19 | 2.5 | 3.08 | 2.28 | 2.21 | 3.28 | 4.93 | 5.13 | 5.14 | 1.12
3 | C/C=C(\C)C(=O)O[C@@H]1C(O)[C@H]2OC(COC(=O)CCC(=O)CCCCCC[C@H](CCCCC)O[C@@H]3OC(C)[C@H](OC(C)=O)C(O)[C@H]3O2)[C@H]1OC(=O)/C=C/c1ccccc1 (some centres not stated) | < 0.0114 | 15.5 | 32.3 | 13.8 | 1.15 µM | 0.761 | 62.3 | 12.3 | 42.5 | 0.747 µM | < 0.01 | 0.156 | < 0.01 | 0.019 | < 0.01 | < 0.01 | 0.293 | 0.0175 | 1.74 | < 0.01
4 | O=C(Nc1cnn2ccc(N3CCC[C@@H]3c3cc(F)ccc3F)nc12)N1CC[C@H](O)C1 | > 100 | > 100 | > 100 | > 100 | > 100 µM | > 100 | > 100 | > 100 | > 100 | > 100 µM | > 100 | > 100 | > 100 | > 100 | > 100 | > 100 | > 100 | > 100 | > 100 | > 100
5 | CN1CCN(c2ccc(-c3cnc4c(-c5csc6ccccc56)cnn4c3)cc2)CC1 | 14.7 | > 15 | 11.4 | > 15 | > 15 µM | > 15 | > 15 | 6.13 | > 15 | > 15 µM | 4.88 | 9.25 | 3.11 | 7.29 | > 15 | > 15 | 6.06 | 2.95 | 11.2 | > 15
6 | COC(=O)[C@]12CC[C@@H](C)[C@H](C)[C@@H]1C1=CC[C@@H]3[C@@]4(C)C(C=O)=C[C@@](C)(COC(C)=O)[C@@H]4[C@H](O)C[C@@]3(C)[C@]1(C)CC2 | 5.41 | 14.8 | 12.3 | 5.11 | 3.54 µM | 14.2 | 7.35 | 4.32 | 10.7 | 10.5 µM | 2.27 | 3.22 | 3.29 | 2.03 | 1.67 | 2.75 | 2.76 | 1.92 | 2.64 | 1.74
7 | CO[C@H]1[C@H](O)[C@H](O[C@H]2CC[C@@]3(C)[C@H](CC[C@@H]4[C@@H]3CC[C@]3(C)[C@@H](C5=CC(=O)OC5)CC[C@]43O)C2)O[C@@H](C)[C@@H]1O | 0.00907 | 0.00324 | 0.00078 | 0.000665 | 0.00224 µM and < 0.0107 µM | 0.0194 | 0.00127 | 0.00152 | 0.000626 | 0.0114 µM and 0.0737 µM |  |  |  |  |  | 0.00395 |  |  |  | 0.00233
8 | C(CCc1nnc2c(n1)CCCC2)Cc1nnc2c(n1)CCCC2 | > 100 | > 100 | > 100 | > 100 | > 100 µM | > 100 | > 100 | > 100 | > 100 | > 100 µM |  |  |  |  |  |  |  |  |  | 
9 | NC1=NC(c2ccccc2)N=C(Nc2ccccc2)N1 (configuration not stated) | > 100 | > 100 | > 100 | > 100 | > 100 µM | > 100 | > 100 | > 100 | > 100 | > 100 µM | > 100 | > 100 | > 100 | > 100 | > 100 | > 100 | > 100 | > 100 | > 100 | 34.8
10 | Nc1ccn([C@H]2C[C@@H](O)[C@@H](CO)S2)c(=O)n1 | > 100 | > 100 | > 100 | > 100 | > 100 µM | > 100 | > 100 | > 100 | > 100 | > 100 µM | > 100 | > 100 | > 100 | > 100 | > 100 | > 100 | > 100 | 8.65 | > 100 | > 44
11 | NCCNCC(O)CO (configuration not stated) | > 100 | > 100 | > 100 | > 100 | > 100 µM | > 100 | > 100 | > 100 | > 100 | > 100 µM |  |  |  |  |  |  |  |  |  | 
12 | Nc1c(C(=O)c2cccc(OCCN3CCOCC3)c2)cnn1-c1ccc(F)cc1 | > 25 | > 25 | > 25 | > 25 | > 25 µM | > 25 | > 25 | > 25 | > 25 | > 25 µM | > 25 | > 25 | > 25 | > 25 | > 25 | > 23.7 | > 25 | > 25 | > 25 | > 25
13 | C=C1C(=O)O[C@H]2[C@H]1CC/C(COC(=O)C(=O)c1c[nH]c3ccc(OC)cc13)=C\CC[C@@]1(C)O[C@@H]21 | 12 | 19.6 | 17.3 | 3.53 | 29.5 µM | 12.4 | 13.8 | 9.2 | 21.4 | 10.4 µM | 6.27 | 8.97 | 8.64 | 1.82 | 12.4 | 6.98 | 7.01 | 4.21 | 6.93 | 6.13
14 | O=C1c2ccccc2S(=O)(=O)N1CSC(=S)N1CCCC1 | > 100 | > 100 | > 100 | > 100 | > 100 µM | > 100 | > 100 | > 100 | > 100 | > 100 µM | > 100 | > 100 | > 88.5 | > 100 | > 100 | > 72.4 | > 78.6 | > 100 | > 51.7 | > 48
15 | COc1cc2c3c(n(CCCN)c(=O)c2cc1OC)-c1ccc(F)cc1C3=O | 26.3 | 15.9 | 21.4 | 14.4 | 14.9 µM | 15.5 | 9.39 | 6.14 | 21.2 | 27 µM | 12.8 | 1.47 | 4.94 | 3.81 | 0.564 | 2.46 | 1.65 | 0.861 | 6.04 | 11.1
16 | COC(=O)c1ccccc1NC(=O)C(=O)CC(=O)c1ccccc1NC1=CC(=O)C(=O)c2ccccc21 | 23 | 77.5 | 41 | 39.4 | > 49.8 µM | > 95 | 24 | 59.5 | 36.2 | 40.3 µM |  |  |  |  |  |  |  |  |  | 
17 | COc1ncc(-c2nc3c(n2C(C)C)[C@H](c2ccc(Cl)cc2)N(c2cc(Cl)cn(C)c2=O)C3=O)c(OC)n1 | > 100 | > 100 | > 100 | > 100 | > 100 µM | > 100 | > 100 | > 100 | > 100 | > 100 µM | 29.6 | 61.5 | 17.9 | 36.7 | 36.8 | 29.5 | > 100 | 15.2 | 29.2 | 30
18 | COc1cc2c3c(n(CCN)c(=O)c2cc1OC)-c1cc2c(cc1C3=O)OCO2 | 0.84 | > 100 | > 23.7 | 3.01 | 2.09 µM | 1.36 | 1.06 |  | 3.02 | 2.43 µM | 0.255 | 1.5 | 0.506 | 0.959 | < 0.0352 | 0.143 | 0.0788 | 0.275 | 1.43 | 0.143
19 | COc1cc(/C=C/C(=O)c2cc(F)c(Cl)cc2Cl)cc(OC)c1OC | > 100 | > 100 | > 100 | > 100 | > 100 µM | > 100 | > 100 | > 100 | > 100 | > 100 µM | 15.7 | 39.6 | 39.2 | 53.2 | 44.4 | 41.2 | 34.2 | 60.6 | 48.6 | 56.3
20 | CC[N+](CC)=c1ccc2nc3c(cc(NCc4ccccc4)c4ccccc43)oc-2c1 | 1.72 | 2.51 | 0.56 | 2.51 | 0.51 µM | 2.3 | 0.352 | 1.98 | 1.63 | 0.808 µM | 0.214 | 1.19 | 0.215 | 1.14 | 0.2 | 0.337 | 0.148 | 0.398 | 0.176 | 0.385
21 | NC(=O)c1[nH]nc(C2OC(CO)C(O)C2O)c1O (configuration not stated) | 670 | > 4620 | 289 | 1160 | 848 µM | > 2990 | 386 | 1730 | 520 | 840 µM |  |  |  |  |  |  |  |  |  | 
22 | Cc1cc(S(=O)(=O)Nc2nc3ccsc3c(=O)n2Cc2ccco2)c(S)cc1Cl | > 100 | > 100 | > 100 | > 100 | > 100 µM | > 100 | > 100 | > 100 | > 100 | > 100 µM | > 100 | 99 | > 100 | > 100 | 62.8 | > 100 | > 100 | > 100 | > 100 | > 100
23 | Cc1ccc(S(=O)(=O)Oc2ccc3c4c(c(=O)oc3c2)CCCCC4)cc1 | > 100 | > 100 | > 100 | > 100 | > 100 µM | > 100 | > 100 | > 100 | > 100 | > 100 µM | > 100 | > 100 | > 100 | 7.1 | > 100 | 4.37 | 8 | > 100 | 7.11 | 71.4
24 | COc1cc2cc(Oc3ccc(NC(=O)Nc4ccccc4)cc3)c(C)nc2cc1OCCN1CCCCC1 | 12.1 | 11 | 18.6 | 11.2 | 11.2 µM | 14.5 | 13.7 | 10.3 | 18.2 | 8.74 µM | 6.39 | 5.77 | 7.26 | 5.63 | 6 | 6.12 | 6.4 | 5.74 | 6.96 | 3.76
25 | O=C1C=CC(=O)C1(Br)Br | 23.1 | 31.8 | 31.7 | 24.9 | 34.1 µM | 51.6 | 39.9 | 17.3 | 33.2 | 24.5 µM |  |  |  |  |  |  |  |  |  | 
26 | CS(=O)(=O)N1CCN(Cc2cc3nc(-c4cccc5[nH]ncc45)nc(N4CCOCC4)c3s2)CC1 (tested in a mixture with another compound) | > 100 |  | 0.0487 | 0.102 | 0.468 µM | 0.105 |  |  |  | 0.164 µM | 1.49 | 0.328 | 0.0213 | 0.0316 | 0.062 | 0.0207 | 0.26 | 0.0638 | 0.514 | 0.021

— PubChem BioAssay (NCI)
